According to patent US9783490B2, “Antimicrobial compounds, their synthesis and applications thereof” (The Secretary of State for Health, priority 2012, dated 2017):

Columns and labels:
[1] = tested on: S. aureus (MTCC 737); test: Minimum Inhibitory Concentration, micro-dilution broth; format: cell-based, Staphylococcus aureus; conditions: for Minimum Inhibitory Concentration S. aureus: Drug sensitive bacteria
Method: (§1) Microorganisms and Culture Conditions: Bacterial strains, S. aureus (MTCC 737) and E. coli (MTCC 443) are purchased from MTCC (Chandigarh, India). MRSA (ATCC 33591), Pseudomonas aeruginosa (ATCC 4676), […]-lactamase producing and drug-resistant Klebsiella pneumonia (ATCC700603), Enterococcus faecium (ATCC 19634) and vancomycin resistant Enterococcus faecium (ATCC 51559) are obtained from ATCC (Rockville, Md., USA).
(§2) E. coli is cultured in Luria Bertani broth (10 g of tryptone, 5 g of yeast extract, and 10 g of NaCl in 1000 mL of sterile distilled water (pH −7) while S. aureus, Pseudomonas aeruginosa (ATCC 4676) and MRSA are grown in Yeast-dextrose broth (1 g of beef extract, 2 g of yeast extract, 5 g of peptone and 5 g of NaCl in 1000 mL of sterile distilled water). For all Enterococcus faecium, Brain Heart Infusion broth (BHI) is used. For solid media 5% agar was used along with above mentioned composition. K. pneumonia was grown in nutrient media (3 g of beef extract and 5 g of peptone in 1000 mL of sterile distilled water). The bacterial samples were freeze dried and stored at −80° C. 5 μl of these stocks were added to 3 mL of the nutrient broth and the culture was grown for 6 h at 37° C. prior to the experiments.
(§3) Antibacterial activity is reported as Minimum Inhibitory Concentration (MIC), i.e. the lowest concentration of the antimicrobial agent that will inhibit the growth of a microorganism after overnight incubation. Water-soluble ACK, NCK and BCK series of compounds are assayed in a modified micro-dilution broth format. Stock solutions are made by serially diluting the compounds using autoclaved Millipore water. Bacteria, to be tested are grown for about 6 hrs in the suitable media containing ˜10^9 cfu/mL (determined through dilution plate technique by spread plate method), which is then diluted to 10^5 cfu/mL using nutrient media. 50 μL of serially diluted compound is added to a 96 well plate containing 150 μL bacterial solutions. Two controls are made; one containing 150 μL of media and 50 μL of compound and the other containing 200 μL of bacterial solution. […] MIC value is determined by taking the average of triplicate O.D. values for each concentration and plotting it against concentration using Origin Pro 8.0 software. The data is then subjected to sigmoidal fitting. From the curve, MIC value is determined, as the point in the curve where the O.D. is similar to that of control having no bacteria. The MIC values and errors of independent experiments are reported as average and standard deviation of triplicates.

[2] = tested on: MRSA (ATCC 33591); test: as above; format: cell-based, Methicillin resistant S. aureus; conditions: for Minimum Inhibitory Concentration MRSA: Drug resistant bacteria
Method: as §1, §2, §3

[3] = tested on: E. coli (MTCC 443); test: as above; format: cell-based, Escherichia coli; conditions: for Minimum Inhibitory Concentration E. coli: Drug sensitive bacteria
Method: as §1, §2, §3

[4] = tested on: vancomycin resistant Enterococcus faecium (ATCC 51559); test: as above; format: cell-based; conditions: for Minimum Inhibitory Concentration VRE: Drug resistant bacteria
Method: as §1, §2, §3

[5] = tested on: Enterococcus faecium (ATCC 19634); test: as above; format: cell-based; conditions: for Minimum Inhibitory Concentration E. faecium: Drug sensitive bacteria
Method: as §1, §2, §3

[6] = tested on: drug-resistant Klebsiella pneumonia (ATCC700603); test: as above; format: cell-based; conditions: for Minimum Inhibitory Concentration K. pneumonia: Drug resistant bacteria
Method: as §1, §2, §3

[7] = tested on: Pseudomonas aeruginosa (ATCC 4676); test: as above; format: cell-based; conditions: for Minimum Inhibitory Concentration P. aeruginosa: Drug sensitive bacteria
Method: as §1, §2, §3

[8] = tested on: human RBCs; test: Haemolytic activity (HC50); format: cell-based; conditions: concentration at which 50% of the blood cells are lysed; human RBCs
Method: Erythrocytes are isolated from freshly drawn, heparinized human blood and re-suspended to 5 vol % in PBS (pH 7.4). In a 96-well microtiter plate, 150 μl of erythrocyte suspension is added to 50 μl of serially diluted compound. Two controls are made, one without compound and other with 50 μl of 1 vol % solution of Triton X-100. The plate is incubated for about 1 hr at a temperature of about 37° C. The plate is then centrifuged at 3,500 rpm for about 5 min, 100 μl of the supernatant from each well is transferred to a fresh microtiter plate, and absorbance at 540 nm is measured. Percentage of hemolysis is determined as (A−A0)/(Atotal−A0)×100, where A is the absorbance of the test well, A0 the absorbance of the negative controls (without compound), and A total the absorbance of 100% hemolysis wells (with Triton X-100), when absorbance is read at 540 nm.
Toxicity studies of the compounds are carried out on freshly drawn human RBCs. Toxicity of the antimicrobial compounds of the present disclosure is defined by their HC50 values illustrated in Table 3, i.e. the concentration of compound at which 50% of the blood cells are lysed. Haemolytic studies conducted herein illustrates that the antimicrobial compounds provided by the instant disclosure are selective towards drug sensitive bacteria and drug resistant bacteria over human RBCs, thus establishing the non-toxicity of the present compounds.

Compound | MIC value against S. aureus [1] | Minimum Inhibitory Concentration S. aureus [1] [µg/mL] | MIC value against methicillin-resistant S. aureus [2] | Minimum Inhibitory Concentration MRSA [2] [µg/mL] | MIC value against E. coli [3] | Minimum Inhibitory Concentration E. coli [3] [µg/mL] | MIC value against vancomycin-resistant E. faecium [4] | Minimum Inhibitory Concentration VRE [4] [µg/mL] | MIC value against E. faecium [5] | Minimum Inhibitory Concentration E. faecium [5] [µg/mL] | MIC value against K. pneumonia [6] | Minimum Inhibitory Concentration K. pneumonia [6] [µg/mL] | MIC value against P. aeruginosa [7] | Minimum Inhibitory Concentration P. aeruginosa [7] [µg/mL] | HC50 [8] [µg/mL]
CCCCCCCCCCCCCCN(Cc1ccccc1)C(=O)C(N)CCCCN.O=C(O)C(F)(F)F (centres unmarked) [BCK-14, Lys-N-tetradecyl-1-Aminomethylbenzene trifluoroacetates] | ~3.1 µg/mL | 3.1 | ~2.5 µg/mL | 2.5 | ~3.1 µg/mL | 3.1 | ~2.5 µg/mL | 2.5 | ~2 µg/mL | 2 | ~4 µg/mL | 4 | ~2.8 µg/mL | 2.8 | 50
CCCCCCCCN(Cc1cccc2ccccc12)C(=O)C(N)CCCCN.O=C(O)C(F)(F)F (centres unmarked) [NCK-8, Lys-N-octyl-1-Aminomethylnaphthalene trifluoroacetate] | about 6.3 μg/ml | 6.3 | about 4.4 μg/ml | 4.4 | about 5 μg/ml | 5 | about 7 μg/ml | 7 | about 5.5 μg/ml | 5.5 | about 13 μg/ml | 13 | ~5.4 µg/mL | 5.4 | 60
CCCCCCCCCCCCN(Cc1ccccc1)C(=O)C(N)CCCCN.O=C(O)C(F)(F)F (centres unmarked) [BCK-12, Lys-N-dodecyl-1-Aminomethylbenzene trifluoroacetates] | ~2.7 µg/mL | 2.7 | ~2.9 µg/mL | 2.9 | ~5 µg/mL | 5 | ~3.3 µg/mL | 3.3 | ~2.6 µg/mL | 2.6 | ~2.8 µg/mL | 2.8 | about 4 μg/ml | 4 | 45
CCCCN(Cc1c2ccccc2c(Cl)c2ccccc12)C(=O)C(N)CCCCN.O=C(O)C(F)(F)F (centres unmarked) [ACK-4, Lys-N-butyl-10-Aminomethyl-9-chloroanthracene trifluoroacetate] | about 5.3 μg/ml | 5.3 | about 6.3 μg/ml | 6.3 | about 4.8 μg/ml | 4.8 | about 5.3 μg/ml | 5.3 | about 4.5 μg/ml | 4.5 | about 17 μg/ml | 17 | ~1.9 µg/mL | 1.9 | 91
CCCCCCN(Cc1cccc2ccccc12)C(=O)[C@@H](N)CCCCN.O=C(O)C(F)(F)F [NCK-6, Lys-N-hexyl-1-Aminomethylnaphthalene trifluoroacetate] |  | 20 |  | 65 |  | 25 |  | 54 |  | 34 |  | 100 | about 11 μg/ml | 11 | 508
CCCCCCCCCCN(Cc1cccc2ccccc12)C(=O)[C@@H](N)CCCCN.O=C(O)C(F)(F)F [NCK-10, Lys-N-decyl-1-Aminomethylnaphthalene trifluoroacetate] | ~2.5 µg/mL | 2.5 | ~2.6 µg/mL | 2.6 | ~4 µg/mL | 4 | ~1.6 µg/mL | 1.6 | ~3.5 µg/mL | 3.5 | ~5.8 µg/mL | 5.8 | ~3 µg/mL | 3 | 54
CCCCCCN(Cc1c2ccccc2c(Cl)c2ccccc12)C(=O)C(N)CCCCN.O=C(O)C(F)(F)F (centres unmarked) [ACK-6, Lys-N-hexyl-10-Aminomethyl-9-chloroanthracene trifluoroacetate] | ~2.4 µg/mL | 2.4 | ~2.8 µg/mL | 2.8 | ~3.5 µg/mL | 3.5 | ~5.2 µg/mL | 5.2 | ~3.3 µg/mL | 3.3 | ~16 µg/mL | 16 | ~1.6 µg/mL | 1.6 | 82
CCCCCCCCN(Cc1ccccc1)C(=O)C(N)CCCCN.O=C(O)C(F)(F)F (centres unmarked) [BCK-8, Lys-N-octyl-1-Aminomethylbenzene trifluoroacetates] |  | 46 |  | >100 |  | 51 |  | >100 |  | 60 |  | >100 |  | 60 | 325
